The values below come from PubChem BioAssay AID1259411 (Chemical Carcinogenesis Research Information System (CCRIS), 2018).

Molecules are shown by their SMILES. Activity calls are given as the source filed them. How the calls were made is not given here.

The subject of this series is rodent carcinogenicity bioassays, tumor incidence. Kind of series: CCRIS carcinogenicity studies. The procedure, abridged: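 NCI-built, expert-reviewed records of carcinogenicity and related test outcomes (mutagenicity, tumor promotion/inhibition) compiled from published and report sources, historical span 1985-2011, not updated.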

`CCCN(CCC)c1c([N+](=O)[O-])cc(C(F)(F)F)cc1[N+](=O)[O-]`: the carcinogen call (Species: MOUSE, Strain/Sex: B6C3F1/FEMALE, Route: ORAL, Dose: 0, 563, 2250, 4500 PPM IN DIET FOR 2 YR (STUDY DURATION: 2 YR), Dose: 0, 563, 2250, 4500 PPM IN DIET FOR 2 YR (STUDY DURATION: 2 YR)) is “inactive; negative”; the carcinogen call (Species: MOUSE, Strain/Sex: B6C3F1/FEMALE, Route: ORAL, Dose: 0, 2740, 5192 PPM IN DIET, TWA, Dose: 0, 2740, 5192 PPM IN DIET, TWA, Tumor Site: Type of Lesion: LUNG: ALVEOLAR/BRONCHIOLAR ADENOMA OR CARCINOMA, LIVER: HEPATOCELLULAR ADENOMA OR CARCINOMA) is “active; positive”; the carcinogen call (Species: MOUSE, Strain/Sex: B6C3F1/MALE, Route: ORAL, Dose: 0, 563, 2250, 4500 PPM IN DIET FOR 2 YR (STUDY DURATION: 2 YR), Dose: 0, 563, 2250, 4500 PPM IN DIET FOR 2 YR (STUDY DURATION: 2 YR)) was “inactive; negative”; the carcinogen call (Species: MOUSE, Strain/Sex: B6C3F1/MALE, Route: ORAL, Dose: 0, 2000, 3744 PPM IN DIET, TWA, Dose: 0, 2000, 3744 PPM IN DIET, TWA) is “inactive; negative”; the carcinogen call (Species: MOUSE, Strain/Sex: NMRI/FEMALE, Route: ORAL, Dose: 0, 50, 200, 800 MG/KG IN DIET FOR 104 WK (STUDY DURATION: 104 WK), Dose: 0, 50, 200, 800 MG/KG IN DIET FOR 104 WK (STUDY DURATION: 104 WK)) is “inactive; negative”; the carcinogen call (Species: MOUSE, Strain/Sex: NMRI/MALE, Route: ORAL, Dose: 0, 50, 200, 800 MG/KG IN DIET FOR 104 WK (STUDY DURATION: 104 WK), Dose: 0, 50, 200, 800 MG/KG IN DIET FOR 104 WK (STUDY DURATION: 104 WK)) was “inactive; negative”. Further, the carcinogen call runs as follows: (Species: RAT, Strain/Sex: OSBORNE-MENDEL/FEMALE, Route: ORAL, Dose: 0, 4125, 7917 PPM IN DIET, TWA, Dose: 0, 4125, 7917 PPM IN DIET, TWA) “inactive; negative”; (Species: RAT, Strain/Sex: OSBORNE-MENDEL/MALE, Route: ORAL, Dose: 0, 4125, 8000 PPM IN DIET, TWA, Dose: 0, 4125, 8000 PPM IN DIET, TWA) “inactive; negative”; (Species: RAT, Strain/Sex: WISTAR/FEMALE, Route: ORAL, Dose: 0, 200, 800, 3200 MG/KG IN DIET FOR 122 WK (STUDY DURATION: 122 WK), Dose: 0, 200, 800, 3200 MG/KG IN DIET FOR 122 WK (STUDY DURATION: 122 WK)) “inactive; negative”; (Species: RAT, Strain/Sex: WISTAR/MALE, Route: ORAL, Dose: 0, 200, 800, 3200 MG/KG IN DIET FOR 122 WK (STUDY DURATION: WK), Dose: 0, 200, 800, 3200 MG/KG IN DIET FOR 122 WK (STUDY DURATION: WK)) “inactive; negative”.

Consider `C=C(C)CN(CC)c1c([N+](=O)[O-])cc(C(F)(F)F)cc1[N+](=O)[O-]`, for which the carcinogen call is, setting by setting: (Species: Mouse, Strain/Sex: B6C3F1/Female (40/Experimental group; 60/Control group), Route: Oral, Dose: 0, 100, 400, 1500 ppm of 94.5% ethalfluralin in diet for 2 yr, study duration 2 yr (2 replicate studies)., Dose: 0, 100, 400, 1500 ppm of 94.5% ethalfluralin in diet for 2 yr, study duration 2 yr (2 replicate studies).) “inactive; negative”; (Species: Mouse, Strain/Sex: B6C3F1/Male (40/Experimental group; 60/Control group), Route: Oral, Dose: 0, 100, 400, 1500 ppm of 94.5% ethalfluralin in diet for 2 yr, study duration 2 yr (2 replicate studies)., Dose: 0, 100, 400, 1500 ppm of 94.5% ethalfluralin in diet for 2 yr, study duration 2 yr (2 replicate studies).) “inactive; negative”; (Species: Rat, Strain/Sex: Fischer 344/Female (30/Group; replicate studies using 94.5% ethalfluralin), Route: Oral, Dose: 0, 0.01, 0.025, 0.075% (0; 4.2; 10.7; 32.3 mg/kg/d) in diet for 2 yr, study duration 2 yr, Dose: 0, 0.01, 0.025, 0.075% (0; 4.2; 10.7; 32.3 mg/kg/d) in diet for 2 yr, study duration 2 yr, Tumor Site: Type of Lesion: Mammary gland: Benign fibroadenomas) “active; positive”; (Species: Rat, Strain/Sex: Fischer 344/Male (30/Group; replicate studies using 94.5% ethalfluralin), Route: Oral, Dose: 0, 0.01, 0.025, 0.075% (0; 4.2; 10.7; 32.3 mg/kg/d) in diet for 2 yr, study duration 2 yr, Dose: 0, 0.01, 0.025, 0.075% (0; 4.2; 10.7; 32.3 mg/kg/d) in diet for 2 yr, study duration 2 yr) “inactive; negative”.

On to `Cc1cc(O)c2c(c1O)C(=O)C13C(=C2O)C(=O)C2C(O)C1C1C(O)C3C(=O)C3=C(O)c4c(O)cc(C)c(O)c4C(=O)C321` (stereo not given), for which the carcinogen call (Species: MOUSE, Route: ORAL, Tumor Site: Type of Lesion: LIVER) is “active; positive”.

As to `S=c1[nH]c2ccccc2s1`, the carcinogen call reads like this: (Species: MOUSE, Strain/Sex: B6C3F1/FEMALE, Route: GAVAGE, Dose: 0, 375, 750 MG/KG IN CORN OIL 5D/WK FOR 103 WK (STUDY DURATION: 104 WK), Dose: 0, 375, 750 MG/KG IN CORN OIL 5D/WK FOR 103 WK (STUDY DURATION: 104 WK), Tumor Site: Type of Lesion: LIVER: HEPATOCELLULAR ADENOMA OR CARCINOMA) “equivocal”; (Species: MOUSE, Strain/Sex: B6C3F1/MALE, Route: GAVAGE, Dose: 0, 375, 750 MG/KG IN CORN OIL 5D/WK FOR 103 WK (STUDY DURATION: 104 WK), Dose: 0, 375, 750 MG/KG IN CORN OIL 5D/WK FOR 103 WK (STUDY DURATION: 104 WK)) “inactive; negative”; (Species: RAT, Strain/Sex: F344/FEMALE, Route: GAVAGE, Dose: 0, 188, 375 MG/KG IN CORN OIL 5D/WK FOR 103 WK (STUDY DURATION: 105 WK), Dose: 0, 188, 375 MG/KG IN CORN OIL 5D/WK FOR 103 WK (STUDY DURATION: 105 WK), Tumor Site: Type of Lesion: PITUITARY GLAND: ADENOMA, PITUITARY GLAND: ADENOMA OR ADENOCARCINOMA, ADRENAL GLAND: PHEOCHROMOCYTOMA, Tumor Site: Type of Lesion: PITUITARY GLAND: ADENOMA, PITUITARY GLAND: ADENOMA OR ADENOCARCINOMA, ADRENAL GLAND: PHEOCHROMOCYTOMA) “active; positive”; (Species: RAT, Strain/Sex: F344/MALE, Route: GAVAGE, Dose: 0, 375, 750 MG/KG IN CORN OIL 5D/WK FOR 103 WK (STUDY DURATION: 105 WK), Dose: 0, 375, 750 MG/KG IN CORN OIL 5D/WK FOR 103 WK (STUDY DURATION: 105 WK), Tumor Site: Type of Lesion: HEMATOPOIETIC SYSTEM: MONONUCLEAR CELL LEUKEMIA, PANCREAS: ACINAR CELL ADENOMA) “active; positive”.

With `O=C(O)c1nn(Cc2ccc(Cl)cc2Cl)c2ccccc12`, the carcinogen call (Species: RAT, Strain/Sex: SPRAGUE-DAWLEY/FEMALE, Route: ORAL, Dose: 0, 20, 60, 180 MG/KG/D IN DIET FOR 2 YR (STUDY DURATION: 2 YR), Dose: 0, 20, 60, 180 MG/KG/D IN DIET FOR 2 YR (STUDY DURATION: 2 YR)) was “inactive; negative” and the carcinogen call (Species: RAT, Strain/Sex: SPRAGUE-DAWLEY/MALE, Route: ORAL, Dose: 0, 20, 60, 180 MG/KG/D IN DIET FOR 2 YR (STUDY DURATION: 2 YR), Dose: 0, 20, 60, 180 MG/KG/D IN DIET FOR 2 YR (STUDY DURATION: 2 YR)) was “inactive; negative”.

Consider `Nc1ccc(NCCO)c([N+](=O)[O-])c1`, for which the carcinogen call is, setting by setting: (Species: MOUSE, Strain/Sex: B6C3F1/MALE, Route: GAVAGE, Dose: 0, 125, 250 MG/KG IN CORN OIL 5 D/WK FOR 104 WK (STUDY DURATION: 105 WK), Dose: 0, 125, 250 MG/KG IN CORN OIL 5 D/WK FOR 104 WK (STUDY DURATION: 105 WK), Tumor Site: Type of Lesion: LIVER: HEPATOCELLULAR ADENOMA OR CARCINOMA) “equivocal”; (Species: RAT, Strain/Sex: F344/FEMALE, Route: GAVAGE, Dose: 0, 250, 500 MG/KG IN CORN OIL 5 D/WK FOR 105 WK (STUDY DURATION: 105 WK), Dose: 0, 250, 500 MG/KG IN CORN OIL 5 D/WK FOR 105 WK (STUDY DURATION: 105 WK)) “inactive; negative”; (Species: RAT, Strain/Sex: F344/MALE, Route: GAVAGE, Dose: 0, 250, 500 MG/KG IN CORN OIL 5 D/WK FOR 105 WK (STUDY DURATION: 105 WK), Dose: 0, 250, 500 MG/KG IN CORN OIL 5 D/WK FOR 105 WK (STUDY DURATION: 105 WK)) “inactive; negative”.

As to `CC(=O)[C@H]1CC[C@H]2[C@@H]3CCC4=CC(=O)CC[C@]4(C)[C@H]3CC[C@]12C`, under “Species: MOUSE, Route: SUBCUTANEOUS, Tumor Site: Type of Lesion: MAMMARY GLAND, OVARIES, UTERUS, Tumor Site: Type of Lesion: MAMMARY GLAND, OVARIES, UTERUS”, the carcinogen call was “active; positive”.
